Results published in patent US11597762B2, “Treatment of a disease of the gastrointestinal tract with an IL-12/IL-23 inhibitor released using an ingestible device” (BIORA THERAPEUTICS, INC., priority 2016, dated 2023).

Test: Tacrolimus tissue pharmacokinetics, oral vs intra-cecal ingestible device, in Yorkshire-Cross farm swine
Assay type: in vivo
Conditions: intra-cecal compared to oral, 12 hours post-dose, FIG. 76
Method: No further randomization procedure was employed.
Animals in Group 1 received an ingestible device containing 0.8 mL of vehicle solution (80% alcohol, 20% HCO-60). Animals in Group 2 received orally […] liquid formulation of tacrolimus at 4 mg/0.8 mL per animal (Prograf: 5 mg/mL). Animals in Group 3 received intra-cecally an ingestible device containing tacrolimus at 1 mg in 0.8 mL per ingestible device. Animals in Group 4 received intra-cecally an ingestible device containing tacrolimus at 2 mg in 0.8 mL per ingestible device. Animals in Group 5 received intra-cecally an ingestible device containing tacrolimus at 4 mg in 0.8 mL per ingestible device. […]
Approximately 200˜400 mg of rectal content were collected, if available, with a fecal swab (Copan Diagnostics Nylon Flocked Dry Swabs, 502CS01). The fecal swab was pre-weighed and weighed after collection in the collection tube (Sterile Tube and Cap No Media, PFPM913S), and the sample weight was recorded. […]
For tissue necropsy, small intestine fluid and cecal fluid were collected separately from all the animals into two separate square plastic bottles, and stored at −20° C. The length and diameter of the cecum and the colon was measured from one animal in each group and recorded for reference. […] All samples were weighed, and the tissue sample weights were recorded. […]

With `C=CC[C@@H]1/C=C(\C)C[C@H](C)C[C@H](OC)[C@H]2O[C@@](O)(C(=O)C(=O)N3CCCC[C@H]3C(=O)O[C@H](/C(C)=C/[C@@H]3CC[C@@H](O)[C@H](OC)C3)[C@H](C)[C@@H](O)CC1=O)[C@H](C)C[C@@H]2OC` [tacrolimus] the “mean concentration of tacrolimus in the cecum tissue” value was “higher” and the “mean concentration of tacrolimus in the proximate colon tissue” value was “higher”.
